{
  "source": "patent US10220040B2",
  "about": "“Compounds, compositions and methods useful for cholesterol mobilization” (Cerenis Therapeutics Holding SA, priority 2010, dated 2019)",
  "key": {"apoE−/− mice": {"system": "apoE−/− mice", "assay": "ApoE−/− high-cholesterol diet model (aorta plaque progression)", "assay_type": "in vivo", "settings": "8 weeks diet then 4 weeks 100 μg/kg/day", "description": "FIG. 19A-L: Effect of P2Y13 agonist on atherosclerotic plaque progression in aortas of apoE^−/− mice. ApoE^−/− mice (n=20) were placed on a Western diet for 8 weeks followed by a 4 weeks oral gavage of vehicle or 100 μg/kg of Compound IIa. Aortas (n=10) were lipid extracted in 2:1 chloroform/methanol. FIG. 19A: the concentrations in total cholesterol were measured by HPLC and GC/MS and compared to parallel apoE−/− mice (n=10) on normal Chow diet as a baseline. FIG. 19B: quantification of the intima/media ratio (n=10). FIG. 19C: F4/80 antibody staining quantification (n=10). FIG. 19D: Oil Red O positive staining quantification (n=10). FIG. 19E: quantification of Sirius Red staining (n=10). FIG. 19F: anti-VCAM1 antibody staining quantification (n=10). The quantifications were expressed as the percentage of staining as compared to the sum of the intima and media area. *p<0.05. FIG. 19G to FIG. 19L: typical example of staining of aorta slides used for the quantifications. FIG. 19G and FIG. 19J: hematoxylin eosin staining of transversal sections of apoE^−/− mice aortas. FIG. 19H and FIG. 19K: Oil Red O staining of transversal sections of apoE^−/− mice aortas. FIG. 19I and FIG. 19L: VCAM1 antibody staining of transversal sections of apoE^−/− mice aortas.\nMice were placed for two month on Western diet (0.2% cholesterol, 21% butter milk) then dosed with Compound IIa once a day at 100 μg/kg (0.5% CMC, 0.2% Tween80) for 4 more weeks. The mice were sacrificed and the aortas were collected for biochemical and immunohistological characterizations. One set of aorta (n=10) was detached at the base of the heart and placed in a glass tube with 3 ml of chloroform-methanol 2:1 (v/v), and stigmasterol as the internal standard. Then analyzed as described above. Another set of aortas (n=10) were first extensively washed with PBS, then with 4% paraformaldehyde (500 μl) and finally with tissue tek OCT (500 μl). Next the aorta was embedded in OCT and frozen at −20° C. Three step frozen sections of 10 μm separated one from the other were processed and stained with Oil red O (ORO), Sirius red and hematoxylin/eosin. Macrophages were detected using F4/80 primary rat monoclonal antibody (Abcam) and VCAM was detected using rat anti mouse CD106 (AbDSerotec).\nThe prevention of progression of the plaque in aorta was further evaluated in the cholesterol diet-fed apoE−/− mice (FIG. 19). […] The collagen content of the wall was improved (FIG. 19E)."}, "New Zealand rabbits": {"system": "New Zealand rabbits", "assay": "Plaque regression in high-cholesterol diet fed New Zealand rabbits", "assay_type": "in vivo, rabbit", "description": "FIG. 20A-M: Plaque regression in rabbits treated with Compound IIa. New Zealand rabbits (n=15) with atherosclerotic plaques developed after 2 months of high-cholesterol diet, were treated with Compound IIa at 30, 100 and 300 μg/kg once a day by oral gavage for 4 weeks. FIG. 20A: lipids extracted from aortas were analyzed by GC/MS for cholesterol concentration. Dark bars, unesterified cholesterol; superimposed gray bars, total cholesterol. *p<0.05. FIG. 20B, FIG. 20C and FIG. 20D: Plasma VLDL cholesterol, LDL cholesterol and HDL cholesterol were resolved as described in FIG. 2. The results are expressed as the percentage from pre-dose. FIG. 20E: apoB concentration in plasma was determined by Western blot analysis. FIG. 20F: triglycerides were measured in the plasma using the kit from Biolabo. FIG. 20G: the bile acids concentrations in liver were determined using an enzymatic kit. FIG. 20H and FIG. 20K: hematoxylin/eosin staining of aortas from rabbits dosed with vehicle (FIG. 20H) or Compound IIa at 300 μg/kg (FIG. 20K). FIG. 20I and FIG. 20L: smooth muscle cells staining of aortas from rabbits dosed with vehicle (FIG. 20I) or Compound IIa at 300 μg/kg (FIG. 20L). FIG. 20J and FIG. 20M: macrophages and monocytes staining of aortas from rabbits dosed with vehicle (FIG. 20J) or Compound IIa at 300 μg/kg (FIG. 20M).\nFIG. 21A-F: Functionality of plasma from high-cholesterol diet fed rabbits treated with Compound IIa. FIG. 21A: ApoA-I concentration in plasma was measured by SELDI-TOF analysis. Purified ApoA-I from homo-sapiens (MWSELDI=28083 Da) was used as a reference for determination of rabbit ApoA-I (MWSELDI=27838 Da) concentration. The results are expressed as the percentage from pre-dose. FIG. 21B: ApoA-I mRNA level was determined using the QPCR technique. Note the overall decrease in the HDL particle size of treated animals. FIG. 21C; HDL from rabbit plasma were separated according to the size of the different HDL particles using the Lipoprint® system. The data were expressed as the percentage for each HDL subpopulation set to the HDL population in the pre-dose animals. Two main HDL particle sub-populations were quantified (high and intermediate—dark and gray bars respectively). FIG. 21D: example of lipoprotein profiles of rabbit treated with vehicle (gray line) and with Compound IIa (300 μg/kg, dark line) using the Lipoprint® separation technique. FIG. 21E and FIG. 21F: determination of cholesterol efflux capacity of plasma and rabbit HDL, respectively, using pre-loaded [^3H]-cholesterol-oxLDL macrophages. The results are expressed as a percentage of cholesterol efflux. *p<0.05, **p<0.005.\nAfter 2 months of High Cholesterol Diet feeding (0.5% cholesterol) and a wash-out period of 2 weeks, the animals were treated (by oral gavage) once day with Compound IIa at 30, 100 and 300 μg/kg for 4 weeks. Blood samples were collected before the dose administration on day 0 and after 4 weeks of administrations of Compound IIa. After final bleeding, the liver, gallbladder, heart, thoracic and abdominal aorta from heart (left ventricle) to iliac arteries were sampled.\nRabbit aortas were fixed in neutral formalin buffer and embedded in paraffin. Longitudinal 3 μm sections were stained with Hematoxylin-Eosin-Saffron for histology analysis. The tissue sections were deparaffinized and incubated in protein-free block to inhibit the nonspecific binding of primary monoclonal antibodies used for the immunostaining of rabbit monocytes and macrophages (RAM11 obtained from Dako Corp. 1:100 dilution) and smooth muscle cell-specific actin (HHF35 obtained from Dako Corp. 1:100 dilution). Secondary biotinylated […] antibody was used at 1:300 dilution (Dako).\nThe issue of whether stimulation of the P2Y13r pathway could affect the regression of atherosclerosis pre-induced in the high-cholesterol diet fed rabbits was also addressed. […]"}, "[1]": {"settings": "orally, up to 0.3 mg/kg for 4 weeks"}},
  "data": [
    {"smiles": "CN(C)c1ncc(CN2CCC(c3cc(O)nc(N4CCOCC4)n3)CC2)cn1", "note": "[Compound IIa, 6-[1-(2-Dimethylaminopyrimidin-5-ylmethyl)-piperidin-4-yl]-2-morpholin-4-yl-pyrimidin-4-ol]", "values": [
      {"measurement": "VCAM1 expression (antibody CD106)", "setting": "apoE−/− mice", "value": "significant decreases"},
      {"measurement": "cholesterol content of aorta", "setting": "apoE−/− mice", "value": "significant decreases"},
      {"measurement": "collagen content of the wall", "setting": "apoE−/− mice", "value": "improved"},
      {"measurement": "lipid staining of aorta", "setting": "apoE−/− mice", "value": "decrease"},
      {"measurement": "macrophage content (F4/80 antibody) of the aortic wall and the plaque", "setting": "apoE−/− mice", "value": "decreased"},
      {"measurement": "plaque area in aorta", "setting": "apoE−/− mice", "value": "significant decreases"},
      {"measurement": "regression of atherosclerotic plaques in aorta (decrease of cholesterol content of the entire artery)", "setting": "New Zealand rabbits; orally, doses up to 0.3 mg/kg for 4 weeks", "value": 30, "unit": "%"},
      {"measurement": "HDL cholesterol and rabbit apoA-I (HPLC, SELDI-TOF)", "setting": "New Zealand rabbits; [1]", "value": "trend towards an increase"},
      {"measurement": "VLDL and LDL cholesterol", "setting": "New Zealand rabbits; [1]", "value": "decreased slightly"},
      {"measurement": "pre-established atherosclerotic plaques in aortas of rabbits fed with cholesterol chow", "setting": "New Zealand rabbits; summary statement", "value": "induced the regression"},
      {"measurement": "apoA-I mRNA expression in the liver", "setting": "New Zealand rabbits; treated rabbits", "value": "increase"},
      {"measurement": "bile acid content in the liver", "setting": "New Zealand rabbits; treated rabbits", "value": "increased"},
      {"measurement": "mRNA expressions of LDL receptors and SR-BI in the liver (QPCR)", "setting": "New Zealand rabbits; treated rabbits", "value": "No change"},
      {"measurement": "plasma apoA-I", "setting": "New Zealand rabbits; treated rabbits", "value": "increase"}
    ]}
  ]
}
